Assay [1] relates to EKVX (non-small cell lung cancer). The experiment in a line: NCI in vitro anticancer assay, growth inhibition, EKVX. Type of assay: cell-based. The following applies: Homo sapiens, read-out: GI50 (concentration causing 50% cell growth inhibition). From the text: (§1) The tested human tumor cell lines are as follows: (1) CCRF-CEM, K-562, MOLT-4 and SR of leukemia; (2) A549/ATCC, EKVX, HOP-62, HOP-92, NCI-H226, NCI-H23, NCI-H322M, NCI-H460a and NCI-H522 of non-small cell lung cancer; (3) COLO 205, HCC-2998, HCT-116, HCT-15, HT29, KM12 and SW-620 of colon cancer; (4) SF-268, SF-295, SF-539, SNB-19, SNB-75 and U251 of CNS cancer; (5) LOX IMVI, MALME-3M, M14, SK-MEL-2, SK-MEL-28, SK-MEL-5, UACC-257 and UACC-62 of melanoma; (6) IGROV1, OVCAR-3, OVCAR-4, OVCAR-5, OVCAR-8 and SK-OV-3 of ovarian cancer; (7) 786-0, A498, ACHN, CAKI-1, RXF 393, SN12C, TK-10 and UO-31 of renal cancer; (8) […] and DU-145 of prostate cancer; and (9) MCF7, MCF7/ADR-RES, MDA-MB-231/ATCC, HS 578T, MDA-MB-435, MDA-N, BT-549 and T-47D of breast cancer.
(§2) For each compound, the dose-response curves for each tested tumor cell line were measured with five different dose concentrations, and the concentration causing 50% cell growth inhibition (GI50) compared with the control was calculated.

Assay [2] deals with COLO 205 (colon cancer). The experiment in a line: NCI in vitro anticancer assay, growth inhibition, COLO 205. It is filed as cell-based. The following applies: Homo sapiens, read-out: GI50 (concentration causing 50% cell growth inhibition).
Source text: as §1, §2

Assay [3] relates to 60 human tumor cell lines. The experiment in a line: NCI in vitro anticancer assay, mean over 60 cell lines. It is filed as cell-based. The settings on record: mean values over 60 cell lines tested.
Source text: as §1, §2
Table 1 summarizes the respective GI50 values and mean GI50 values for the tested compounds in relation to all the 60 tumor cell lines.

In assay [4] the test system is NCI-H522 (non-small cell lung cancer). The experiment in a line: NCI in vitro anticancer assay, growth inhibition, NCI-H522. It is filed as cell-based. The settings on record: Homo sapiens, read-out: GI50 (concentration causing 50% cell growth inhibition).
Source text: as §1, §2

Assay [5] relates to RXF 393 (renal cancer). The assay can be described thus: NCI in vitro anticancer assay, growth inhibition, RXF 393. The following applies: Homo sapiens, read-out: GI50 (concentration causing 50% cell growth inhibition). Type of assay: cell-based.
Source text: as §1, §2

Assay [6] in a line: In vivo hollow fiber assay (NCI). The following applies: intraperitoneal (IP) and subcutaneous (SC) samples, total score of 20 or more considered active. How it is done: The compounds obtained from the above Synthesis Ex. 1 and Synthesis Ex. 2 were further examined in an in vivo hollow fiber assay conducted by the National Cancer Institute (NCI) in the United States, in which an intraperitoneal (IP) sample and a subcutaneous (SC) sample were tested. In this assay, if a tested compound is observed to have a total score of IP score and SC score […]20, it will be considered to be active and to have the potential as an anti-tumor/anti-cancer drug candidate. According to the confidential report of the Developmental Therapeutics Program issued by NCI on Apr.

The test system of assay [7] is SN12C (renal cancer). The assay can be described thus: NCI in vitro anticancer assay, growth inhibition, SN12C. Type of assay: cell-based. The settings on record: Homo sapiens, read-out: GI50 (concentration causing 50% cell growth inhibition).
Source text: as §1, §2

For assay [8], the system named is U251 (CNS cancer). The experiment in a line: NCI in vitro anticancer assay, growth inhibition, U251. The following applies: Homo sapiens, U-251, read-out: GI50 (concentration causing 50% cell growth inhibition). Type of assay: cell-based.
Source text: as §1, §2

The test system of assay [9] is HT29 (colon cancer). The experiment in a line: NCI in vitro anticancer assay, growth inhibition, HT29. The settings on record: Homo sapiens, HT-29, read-out: GI50 (concentration causing 50% cell growth inhibition). Type of assay: cell-based.
Source text: as §1, §2

The test system of assay [10] is SF-268 (CNS cancer). The assay can be described thus: NCI in vitro anticancer assay, growth inhibition, SF-268. Type of assay: cell-based. The settings on record: Homo sapiens, read-out: GI50 (concentration causing 50% cell growth inhibition).
Source text: as §1, §2

Turning to `COc1cc2c(cc1OC(=O)c1cc3ccccc3[nH]1)N=C[C@@H]1CCCN1C2=O` [Synthesis Ex. 1], the GI50 is 674 nM in [1]; 196 nM in [2]; at most 380 nM in [3] (Homo sapiens, 60 cell); 380 nM in assay [3]; 198 nM in [4]; 155 nM in assay [5]. The GI50 in assay [7] came out at 210 nM; in assay [8], 302 nM; in assay [9], 185 nM; in [10], 669 nM. The “total score of IP score and SC score” value in assay [6] amounted to 22.

Take `COc1cc2c(cc1OCCCNC(=O)c1cc3ccccc3[nH]1)N=C[C@@H]1CCCN1C2=O` [Synthesis Ex. 2]: the GI50 in assay [1] came out at 604 nM; in [2], 118 nM; in assay [4] it was 14.1 nM; in [5] it was 25 nM; in assay [7], 410 nM; in assay [8], 39.4 nM. The figures for the GI50 in [9] and in assay [10] were 274 nM and 27 nM, respectively. Also, in assay [6], the “total score of IP score and SC score” value is on record as 30.
